# Measurements reported in patent publication US11781160B2, “Methods for the production of methacrylates” (priority 2018, dated 2023).
# What was measured:
# [1] = tested on: gene transcription in strain 5; test: Transcriptome analysis with added BMA, strain 5
# Experimental: (§1) Transcriptome analysis was carried out to characterize transcriptional activity in mutant microorganisms using standard methods.
# (§2) Sample Preparation • 1) Streak strains onto fresh MSX agar (15 g/L) plates directly from the cryostocks and incubate overnight at 37° C. • 2) Isolate single colonies and inoculate pre-cultures in MSX, using 50 ml shake flasks. Incubate overnight at 37° C. and 250 rpm. • 3) Inoculate cultures in MSX to an initial OD600 of 0.05, using 250 mL pyrex shake flasks with 24/29 neck join. Incubate at 37° C. and 250 rpm. Do 4 biological replicates (3 replicates for sequencing plus one backup)—4 flasks per strain. • 4) Seal shake flasks with sterile Suba seals. To monitor OD, take samples using a sterile syringe and needle after first swabbing the Suba seals with 70% ethanol. Monitor OD. • 5) When OD reaches 0.3, collect first sample for RNA extraction (“before” sample) into a pre-chilled falcon. Keep samples on ice. • 6) Immediately after, add 20% (v/v) BMA. Re-incubate cultures. • 7) Quickly process the samples according to the RNeasy kit protocol, until step 6 of protocol 1. Always keep samples on ice and store it at −80° C. until further use, if possible, flash freeze in liquid nitrogen it before storing. • 8) One hour after the first sample collection/BMA addition, collect the second sample for RNA extraction (“after” sample). Proceed as explained before. • 9) Continue to monitor the OD until the cultures reach 24 h. • To summarise, each strain tested will have 6 samples to send for sequencing, 3 collected right before the addition and 3 collected one hour after, plus 1 “back-up” for before and after, in case something goes wrong during extraction (8 samples total). Besides the WT strain with the addition of BMA, samples were also collected from a WT culture with no BMA, one hour after reaching OD of 0.3, as a control.
# (§3) Transcription was compared for a double mutant and the wild-type in the presence and absence of BMA relative to the level in the wild type in the absence of BMA. For the avoidance of doubt the level in the table is the ratio of the level in the strain under the BMA exposure relative to the level in the wild type in the absence of added BMA.
# [2] = tested on: gene transcription in strain 18; test: Transcriptome analysis with added BMA, strain 18
# Experimental: as §1, §2, §3
# [3] = tested on: E. coli BW25113 isolate 5-soxR(Leu139X), 580116(G > T) acrR(indels); test: Growth kinetics of isolated strain 5 with 20% v/v BMA
structure (smiles),measurement,setting,value
"C=C(C)C(=O)OCCCC [BMA, butyl 2-methylprop-2-enoate]",IdhA transcription level relative to wild type without BMA,[1],18.24
same,acrA transcription level relative to wild type without BMA,[1],6.28
same,acrB transcription level relative to wild type without BMA,[1],7.49
same,adiY transcription level relative to wild type without BMA,[1],24.79
same,ariR transcription level relative to wild type without BMA,[1],21.79
same,asr transcription level relative to wild type without BMA,[1],160.42
same,bssR transcription level relative to wild type without BMA,[1],20.35
same,ibpA transcription level relative to wild type without BMA,[1],43.39
same,ibpB transcription level relative to wild type without BMA,[1],174.50
same,narG transcription level relative to wild type without BMA,[1],47.85
same,nirB transcription level relative to wild type without BMA,[1],34.19
same,nirD transcription level relative to wild type without BMA,[1],16.69
same,pspA transcription level relative to wild type without BMA,[1],23.32
same,pspB transcription level relative to wild type without BMA,[1],16.87
same,pspD transcription level relative to wild type without BMA,[1],14.10
same,pspc transcription level relative to wild type without BMA,[1],16.55
same,raiA transcription level relative to wild type without BMA,[1],20.11
same,rmf transcription level relative to wild type without BMA,[1],15.45
same,soxS transcription level relative to wild type without BMA,[1],41.81
same,spy transcription level relative to wild type without BMA,[1],20.88
same,ybfA transcription level relative to wild type without BMA,[1],20.19
same,ybhG transcription level relative to wild type without BMA,[1],18.33
same,ybiH transcription level relative to wild type without BMA,[1],15.30
same,ydgU transcription level relative to wild type without BMA,[1],48.46
same,yhjx transcription level relative to wild type without BMA,[1],105.59
same,yibT transcription level relative to wild type without BMA,[1],29.57
same,ymgA transcription level relative to wild type without BMA,[1],16.41
same,ymgC transcription level relative to wild type without BMA,[1],17.15
same,ynfM transcription level relative to wild type without BMA,[1],40.65
same,yohk transcription level relative to wild type without BMA,[1],16.04
same,IdhA transcription level relative to wild type without BMA,[2],56.74
same,acrA transcription level relative to wild type without BMA,[2],6.47
same,acrB transcription level relative to wild type without BMA,[2],10.12
same,adiY transcription level relative to wild type without BMA,[2],21.13
same,ariR transcription level relative to wild type without BMA,[2],25.19
same,asr transcription level relative to wild type without BMA,[2],74.22
same,bssR transcription level relative to wild type without BMA,[2],134.14
same,ibpA transcription level relative to wild type without BMA,[2],74.55
same,ibpB transcription level relative to wild type without BMA,[2],158.35
same,narG transcription level relative to wild type without BMA,[2],25.46
same,nirB transcription level relative to wild type without BMA,[2],23.98
same,nirD transcription level relative to wild type without BMA,[2],34.98
same,pspA transcription level relative to wild type without BMA,[2],20.71
same,pspB transcription level relative to wild type without BMA,[2],20.94
same,pspD transcription level relative to wild type without BMA,[2],18.60
same,pspc transcription level relative to wild type without BMA,[2],21.37
same,raiA transcription level relative to wild type without BMA,[2],44.16
same,rmf transcription level relative to wild type without BMA,[2],20.96
same,soxS transcription level relative to wild type without BMA,[2],1.17
same,spy transcription level relative to wild type without BMA,[2],4.36
same,ybfA transcription level relative to wild type without BMA,[2],24.95
same,ybhG transcription level relative to wild type without BMA,[2],18.85
same,ybiH transcription level relative to wild type without BMA,[2],12.75
same,ydgU transcription level relative to wild type without BMA,[2],28.47
same,yhjx transcription level relative to wild type without BMA,[2],251.44
same,yibT transcription level relative to wild type without BMA,[2],83.81
same,ymgA transcription level relative to wild type without BMA,[2],11.97
same,ymgC transcription level relative to wild type without BMA,[2],12.62
same,ynfM transcription level relative to wild type without BMA,[2],55.40
same,yohk transcription level relative to wild type without BMA,[2],14.54
same,Growth rate,[3],0.625 ± 0.052 h⁻¹
same,Lag time,[3],5 h
same,Max cell concentration,[3],0.597 ± 0.096 g/L
